# Experiments:
# mammary carcinogenesis = settings: rat model; cited from earlier work
# estradiol metabolism = test: Urinary 2-hydroxyestrone to 16-alpha-hydroxyestrone ratio by ELISA in trial patients; assay type: in vivo, human
# Method: Clean catch urine specimens were obtained from each patient at the initial visit and again at their 4-week visit. 2-hydroxyestrone to 16-alpha-hydrosytestrone ratios were assessed in each urine sample. Ascorbic acid was added to the urine specimens to aid in preservation for accurate analysis. ELISA assays were performed to assess the quantity of 2-hydroxyestrone and 16-alpha-hydroxyestrone in each urine sample, and were reported in ng/ml.
# [1] = tested on: HPV-induced benign tumors of laryngeal tissue; settings: mouse model; cited from earlier work
# [2] = tested on: cervical intraepithelial neoplasia (CIN); test: Placebo-controlled trial of oral indole-3-carbinol in patients with histologically confirmed CIN, 12 weeks; assay type: in vivo, human; settings: for patients with complete regression based on 12-week biopsy: placebo 0 of 10; for mean grade change of CIN: placebo 1.22
# Method: Thirty subjects with histologically confirmed CIN were enrolled. Eligibility requirements were as follows: adequate colposcopy, negative ECC, no suspicion of invasion, non-pregnant, and […]. Evaluating colposcopists and patients were blinded to the treatment. All residents and staff involved in the study were instructed regarding the protocol. The patients were randomized to placebo, 200 mg/day, or 400-mg/day treatment of indole-3-carbinol administered orally for 12 weeks. Randomization was performed by successively assigning patients from a computer-generated randomization table. […] All patients underwent colposcopy at the initial visit as well as at their 4-week, 8-week, and 12-week visit. Photodocumentation of each colposcopic examination was obtained. At the end of the trial, each patient was reexamined, and if the patient had persistent CIN on 12-week biopsy, or if the colposcopic impression was persistent CIN, they underwent LEEP of the transformation zone. The dysplasia was classified by the pathologists in the usual manner and defined as follows: mild dysplasia meaning the presence of immature (dysplastic) cells present in the lower third of the squamous mucosa, moderate dysplasia in the lower two thirds, severe dysplasia the lower three fourths of the thickness of the mucosa and carcinoma in situ (“CIS”) full thickness immaturity. The cases were originally diagnosed by a sign out pathologist. The diagnosis of all cases was verified by the same pathologist for uniformity. In all cases, the pathologist was in agreement with the pathologist that had signed out the case. HPV status was assessed in all patients by Hybrid capture assay tests ([…] Diagnostics; Beltsville, MD) for low-risk (HPV types 6, 11, 42, 43, 44) and high-risk (HPV types 16, 18, 31, 33, 35, 45, 51, 52, 56). If the Hybrid capture assay was negative; a follow-up polymerase chain reaction (PCR) analysis was performed using consensus primers shown below for the L-1 region of HPV to confirm HPV positivity. The PCR amplification conditions were optimized using DNA isolated from paraffin embedded control HPV positive cervical cancer specimens prior to analysis of the study patient'samples.
compound,measurement,setting,value
"OCc1c[nH]c2ccccc12 [I3C, 1H-indole-3-methanol]",inhibition of mammary carcinogenesis,mammary carcinogenesis,effective in inhibiting mammary carcinogenesis
same,change of urinary 2-hydroxyestrone to 16-alpha-hydroxyestrone ratio before and after therapy,"estradiol metabolism; 200 mg/day and 400 mg/day groups, initiation vs 4 weeks, placebo showed a decrease",general trend in increase in the ratios
same,physiologic effect of the drug,estradiol metabolism; conclusion of the placebo-controlled trial,seen in a dose-dependent fashion
same,growth of HPV-induced benign tumors of laryngeal tissue,[1],inhibits growth
same,"relative risk (RR), protective effect","[2]; 200 mg/day group vs placebo, 95% CI 0.25 to 0.99, p=0.023",0.50
same,patients with complete regression based on 12-week biopsy,"[2]; 200 mg/day orally for 12 weeks, 4 of 8 patients",50.0%
same,mean grade change of CIN,[2]; 200 mg/day orally for 12 weeks,1.38
same,"relative risk (RR), protective effect","[2]; 400 mg/day group vs placebo, 95% CI 0.31 to 0.99, p=0.032",0.55
same,patients with complete regression based on 12-week biopsy,"[2]; 400 mg/day orally for 12 weeks, 4 of 9 patients",44.4%
same,mean grade change of CIN,[2]; 400 mg/day orally for 12 weeks,1.78
same,patients with complete regression of CIN,"[2]; 12 weeks of daily oral administration, summary statement",Roughly half
same,correlation of HPV presence with response,[2]; HPV status by Hybrid capture assay / PCR,presence of HPV does not correlate with response
same,dose response of mean grade of CIN regression,"[2]; placebo, 200 mg/day and 400 mg/day groups",linear dose response relationship

# Source: US6399645B1, “Chemoprevention and treatment of cervical or vaginal neoplasia” (priority 2000, dated 2002)
